Experimental data as given in patent US20110020494A1, “GROWTH MEDIUM FOR LACTIC ACID BACTERIA” (priority 2007, published 2011).

Test system: mesophilic culture of Lactococcus
Assay: Growth of Lactococcus with formate and purine supplementation: pH of inoculated milk over time
Type: cell-based
Conditions: milk 1% fat, 32° C., inoculation 0.022%, IMP 10 ppm, NaF 5 ppm
Protocol: In these experiments, the growth of Lactococcus in the presence of supplemented formate and purine was investigated. Equal amounts of milk (pasteurized milk w/1% fat) were added to four 1 liter Pyrex bottles. The bottles were placed in the water bath at 32° C.
All bottles were inoculated with a mesophilic culture of Lactococcus (0.022%). When the milk reached 32° C., three of the four bottles were supplemented with Na formate and/or disodium-5′-inosinate (IMP), as shown below.
The initial pH of the milk was recorded. The pH in the bottles was measured every hour for the first two hours and then every half hour until a pH of around 4.6 was reached.
The pH of each of the bottles, as a function of time, is shown below, and graphed in FIG. 1.

O=C[O-].[Na+] [NaF, sodium formate] was tested. Which pH (time 0 hours (initial pH)) did it give?
Its pH is 6.54.

What about the pH (time 1 hour) of the same compound?
Its pH is 6.48.

What about the pH (time 2 hours) of the same compound?
Its pH is 6.29.

And the pH (time 2.6 hours)?
The pH was 6.03.

What about the pH (time 3 hours) of the same compound?
The pH was 5.79.

What about the pH (time 3.5 hours) of the same compound?
The pH was 5.51.

And the pH (time 4 hours)?
Its pH is 5.26.

What about the pH (time 5.1 hours) of the same compound?
Its pH is 4.66.

And the pH (time 5.6 hours)?
Its pH is 4.54.

How did the pH (time 0 hours (initial pH)) turn out when disodium-5′-inosinate [IMP] was run?
Its pH is 6.54.

What about the pH (time 1 hour) of the same compound?
The pH was 6.48.

And the pH (time 2 hours)?
The pH was 6.27.

What about the pH (time 2.6 hours) of the same compound?
Its pH is 5.98.

What about the pH (time 3 hours) of the same compound?
The pH was 5.73.

What about the pH (time 3.5 hours) of the same compound?
The pH was 5.42.

And the pH (time 4 hours)?
Its pH is 5.17.

And the pH (time 5.1 hours)?
The pH was 4.6.

What about the pH (time 5.6 hours) of the same compound?
Its pH is 4.5.
